Source: patent US7186732B2, “Non-imidazole aryloxyalkylamines” (Ortho-McNeil Pharmaceutical, Inc., priority 2000, dated 2007)
Counter-ions that a name gives are not always drawn.

biological target: T1, human histamine H3 receptor (Homo sapiens, UniProt Q9Y5N1); experiment: [3H]-N-methylhistamine binding to membranes of histamine H3 receptor-expressing SK-N-MC cells; conditions: not given
T1 construct: expressed in transfected cells; membranes prepared from cell pellets
Method: Thus in the present invention receptor binding was determined using the human histamine H3 receptor (See Lovenberg et al Mol. Pharmacol. 1999, 1107). Screening using the human receptor is particularly important for the identification of new therapies for the treatment of human disease. Conventional binding assays for example are determined using rat synaptosomes (Garbarg et al J. Pharmacol. Exp. Ther. 1992, 263, 304), rat cortical membranes (West et al Mol. Pharmacol. 1990, 610), and guinea pig brain (Korte et al Biochem. Biophys. Res. Commun. 1990, 978).
Transfection of Cells with Human Histamine Receptor
A 10 cm tissue culture dish with a confluent monolayer of SK-N-MC cells was split two days prior to transfection. Using sterile technique the media was removed and the cells were detached from the dish by the addition of trypsin. One fifth of the cells were then placed onto a new 10 cm dish. Cells were grown in a 37° C. incubator with 5% CO2 in Minimal Essential Media Eagle with 10% Fetal Bovine Serum. After two days cells were approximately 80% confluent. These were removed from the dish with trypsin and pelleted in a clinical centrifuge. The pellet was then re-suspended in 400 μL complete media and transferred to an electroporation cuvette with a 0.4 cm gap between the electrodes (Bio-Rad #165–2088). One microgram of supercoiled H3 receptor cDNA was added to the cells and mixed. The voltage for the electroporation was set at 0.25 kV, the capacitance was set at 960 μF. After electroporation the cells were diluted into 10 mL complete media and plated onto four 10 cm dishes. Because of the variability in the efficiency of electroporation, four different concentrations of cells were plated. The ratios used were; 1:20, 1:10, 1:5, with the remainder of the cells being added to the fourth dish. The cells were allowed to recover for 24 hours before adding the selection media (complete media with 600 μg/mL G418). After 10 days dishes were analyzed for surviving colonies of cells. Dishes with well isolated colonies were used. Cells from individual colonies were isolated and tested. SK-N-MC cells were used because they give efficient coupling for inhibition of adenylate cyclase. The clones that gave the most robust inhibition of adenylate cyclase in response to histamine were used for further study.
[^3H]-N-methylhistamine Binding
Cell pellets from histamine H3 receptor-expressing SK-N-MC cells were homogenized in 20 mM TrisHCI/0.5 mM EDTA. Supernatants from a 800 g spin were collected, recentrifuged at 30,000 g for 30 minutes. Pellets were re-homogenized in 50 mM Tris/5 mM EDTA (pH 7.4). Membranes were incubated with 0.8 nM [^3H]-N-methylhistamine plus/minus test compounds for 45 min at 25° C. and harvested by rapid filtration over GF/C glass fiber filters (pretreated with 0.3% polyethylenimine) followed by four washes with ice cold buffer. Filters were dried, added to 4 mL scintillation cocktail and then counted on a liquid scintillation counter. Non-specific binding was defined with 10 μM histamine. The pKi values were calculated based on a Kd of 800 pM and a ligand concentration ([L]) of 800 pM according to the formula: Ki=(IC50)/(1+([L]/(Kd))

T1 sequence (Q9Y5N1 whole entry): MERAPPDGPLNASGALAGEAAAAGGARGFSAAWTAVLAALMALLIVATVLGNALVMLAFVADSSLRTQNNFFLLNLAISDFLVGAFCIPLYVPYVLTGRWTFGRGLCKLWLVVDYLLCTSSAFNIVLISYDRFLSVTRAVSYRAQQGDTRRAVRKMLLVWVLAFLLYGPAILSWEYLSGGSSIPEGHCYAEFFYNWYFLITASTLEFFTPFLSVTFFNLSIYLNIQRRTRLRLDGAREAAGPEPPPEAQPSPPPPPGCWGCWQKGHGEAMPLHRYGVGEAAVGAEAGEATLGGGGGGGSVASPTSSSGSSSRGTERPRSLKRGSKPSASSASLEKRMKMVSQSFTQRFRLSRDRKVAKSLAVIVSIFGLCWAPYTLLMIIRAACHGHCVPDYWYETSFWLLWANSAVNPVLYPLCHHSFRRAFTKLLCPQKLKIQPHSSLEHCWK

SMILES	Ki [nM]
OC1CCN(Cc2ccc(OCCCN3CCCCC3)cc2)CC1 [Example 89, 1-[4-(3-Piperidin-1-yl-propoxy)-benzyl]-piperidin-4-ol]	0.6

same assay, conditions: 0.8 nM [3H]-N-methylhistamine, 45 min at 25° C., SK-N-MC cell membranes; Ki=(IC50)/(1+([L]/(Kd)); read-out: Ki

Ki [nM]	SMILES
2.5	CN1CCN(Cc2ccc(OCCCN3CCCCC3)cc2)CC1 [Example 53, 1-Methyl-4-[4-(3-piperidin-1-yl-propoxy)-benzyl]-piperazine]
4	c1cc(OCCCN2CCOCC2)ccc1CN1CCCCC1 [Example 51, 4-[3-(4-Piperidin-1-ylmethyl-phenoxy)-propyl]-morpholine]
1.1	CC1CCCCN1CCCOc1ccc(CN2CCCCC2)cc1 (stereo not shown) [Example 73, 2-Methyl-1-[3-(4-piperidin-1-ylmethyl-phenoxy)-propyl]-piperidine]
1.1	CN(CCc1ccccc1)C1CCN(Cc2ccc(OCCCN3CCCCC3)cc2)CC1 [Example 42, Methyl-phenethyl-{1-[4-(3-piperidin-1-yl-propoxy)-benzyl]-piperidin-4-yl}-amine]
1.5	c1cc(-c2ccc(OCCCN3CCCCC3)cc2)n(CCCN2CCCCC2)c1 [Example 96, 1-(3-{4-[1-(3-Piperidin-1-yl-propyl)-1H-pyrrol-2-yl]-phenoxy}-propyl)-piperidine]
5.5	c1ccc(CN(CCCn2cccc2-c2ccc(OCCCN3CCCCC3)cc2)Cc2ccccc2)cc1 [Example 92, Dibenzyl-(3-{2-[4-(3-piperidin-1-yl-propoxy)-phenyl]-pyrrol-1-yl}-propyl)-amine]
1.2	c1cc(OCCCN2CCCCC2)ccc1CN1CCCC1 [Example 48, 1-[3-(4-Pyrrolidin-1-ylmethyl-phenoxy)-propyl]-piperidine]
1.3	c1ccc(CC2CCN(Cc3ccc(OCCCN4CCCCC4)cc3)CC2)cc1 [Example 93, 1-{3-[4-(4-Benzyl-piperidin-1-ylmethyl)-phenoxy]-propyl}-piperidine]
1.3	C(=C1CCN(Cc2ccc(OCCCN3CCCCC3)cc2)CC1)c1ccccc1 [Example 72, 1-{3-[4-(4-Benzylidene-piperidin-1-ylmethyl)-phenoxy]-propyl}-piperidine]
25	CN1CCN(CCCOc2ccc(CN3CCCCC3)cc2)CC1 [Example 52, 1-Methyl-4-[3-(4-piperidin-1-ylmethyl-phenoxy)-propyl]-piperazine]
0.7	c1ccc2c(c1)CCN(Cc1ccc(OCCCN3CCCCC3)cc1)C2 [Example 36, 2-[4-(3-Piperidin-1-yl-propoxy)-benzyl]-1,2,3,4-tetrahydro-isoquinoline]
13	c1cc(-c2ncc(OCCCN3CCCCC3)cn2)ccc1OCCCN1CCCCC1 [Example 33, 5-(3-Piperidin-1-yl-propoxy)-2-[4-(3-piperidin-1-yl-propoxy)-phenyl]-pyrimidine]

The remaining lines, values behind:

SMILES	Ki [nM]
CCN(Cc1ccncc1)Cc1ccc(OCCCN2CCCCC2)cc1 [Example 79, Ethyl-[4-(3-piperidin-1-yl-propoxy)-benzyl]-pyridin-4-ylmethyl-amine]	1.3
CN(C)Cc1ccc(OCCCN2CCCCC2)cc1 [Example 59, Dimethyl-[4-(3-piperidin-1-yl-propoxy)-benzyl]-amine]	2
CN(Cc1ccccc1)Cc1ccc(OCCCN2CCCCC2)cc1 [Example 80, Benzyl-methyl-[4-(3-piperidin-1-yl-propoxy)-benzyl]-amine]	1
c1ccc(NCc2ccc(OCCCN3CCCC3)cc2)nc1 [Example 39, Pyridin-2-yl-[4-(3-pyrrolidin-1-yl-propoxy)-benzyl]-amine]	4.5
Clc1ccc(N2CC3CC2CN3Cc2ccc(OCCCN3CCCCC3)cc2)cc1 (stereo not shown) [Example 55, 2-(4-Chloro-phenyl)-5-[4-(3-piperidin-1-yl-propoxy)-benzyl]-2,5-diaza-bicyclo[2.2.1]heptane]	1.4
C(=C1CCN(Cc2ccccc2OCCCN2CCCCC2)CC1)c1ccccc1 [Example 70, 1-{3-[2-(4-Benzylidene-piperidin-1-ylmethyl)-phenoxy]-propyl}-piperidine]	380
c1cc(OCCCN2CCCCC2)ccc1CNC1CC1 [Example 50, Cyclopropyl-[4-(3-piperidin-1-yl-propoxy)-benzyl]-amine]	1
Clc1ccc(NCc2ccc(OCCCN3CCCCC3)cc2)cc1 [Example 85, (4-Chloro-phenyl)-[4-(3-piperidin-1-yl-propoxy)-benzyl]-amine]	23
c1ccc(NCc2ccccc2OCCCN2CCCCC2)nc1 [Example 65, [2-(3-Piperidin-1-yl-propoxy)-benzyl]-pyridin-2-yl-amine]	100
CN(C)CCOc1ccc(OCCCN2CCCCC2)cc1 [Example 29, Dimethyl-{2-[4-(3-piperidin-1-yl-propoxy)-phenoxy]-ethyl}-amine]	2.3
c1ccc(NCc2cccc(OCCCN3CCCCC3)c2)nc1 [Example 66, [3-(3-Piperidin-1-yl-propoxy)-benzyl]-pyridin-2-yl-amine]	8
c1cc(N2CCNCC2)ccc1OCCCN1CCCCC1 [Example 25, 1-[4-(3-Piperidin-1-yl-propoxy)-phenyl]-piperazine hydrochloride]	1
CN(CCc1ccccc1)Cc1cccc(OCCCN2CCCCC2)c1 [Example 74, Methyl-phenethyl-[3-(3-piperidin-1-yl-propoxy)-benzyl]-amine]	3

same assay, conditions: 0.8 nM [3H]-N-methylhistamine, 45 min at 25° C., SK-N-MC cell membranes; […]; read-out: Ki

SMILES	Ki [nM]
c1cc(N2CCNCC2)ccc1OCCCN1CCCC1 [Example 23, 1-[4-(3-Pyrrolidin-1-yl-propoxy)-phenyl]-piperazine hydrochloride]	1.3
Brc1ccc2c(c1)CCN2C1CCN(Cc2ccc(OCCCN3CCCCC3)cc2)CC1 [Example 63, 5-Bromo-1-{1-[4-(3-piperidin-1-yl-propoxy)-benzyl]-piperidin-4-yl}-2,3-dihydro-1H-indole]	3
c1ccc2c(c1)ncn2C1CCN(Cc2ccc(OCCCN3CCCCC3)cc2)CC1 [Example 60, 1-{1-[4-(3-Piperidin-1-yl-propoxy)-benzyl]-piperidin-4-yl}-1H-benzoimidazole]	2
c1ccc(CN2CCN(Cc3ccc(OCCCN4CCCCC4)cc3)CC2)cc1 [Example 90, 1-Benzyl-4-[4-(3-piperidin-1-yl-propoxy)-benzyl]-piperazine]	0.9
OC1(c2ccc(OCCCN3CCCCC3)cc2)CCN(Cc2ccccc2)CC1 [Example 22, 1-Benzyl-4-[4-(3-piperidin-1-yl-propoxy)-phenyl]-piperidin-4-ol]	0.9
c1ccc(CN2CCN(c3ccc(OCCCN4CCCCC4)cc3)CC2)cc1 [Example 27, 1-Benzyl-4-[4-(3-piperidin-1-yl-propoxy)-phenyl]-piperazine]	3
c1ccc(N(CCN2CCCC2)C2CCN(Cc3ccc(OCCCN4CCCCC4)cc3)CC2)nc1 [Example 38, {1-[4-(3-Piperidin-1-yl-propoxy)-benzyl]-piperidin-4-yl}-pyridin-2-yl-(2-pyrrolidin-1-yl-ethyl)-amine]	1.2
c1ccc2c(c1)CCN2C1CCN(Cc2ccc(OCCCN3CCCCC3)cc2)CC1 [Example 64, 1-{1-[4-(3-Piperidin-1-yl-propoxy)-benzyl]-piperidin-4-yl}-2,3-dihydro-1H-indole]	2
